Here are results for nine compounds from ChEMBL document CHEMBL1909046, “DrugMatrix in vitro pharmacology data”.

One assay deals with T1, Neutrophil elastase (Homo sapiens, UniProt P08246).
T1 sequence (P08246 whole entry): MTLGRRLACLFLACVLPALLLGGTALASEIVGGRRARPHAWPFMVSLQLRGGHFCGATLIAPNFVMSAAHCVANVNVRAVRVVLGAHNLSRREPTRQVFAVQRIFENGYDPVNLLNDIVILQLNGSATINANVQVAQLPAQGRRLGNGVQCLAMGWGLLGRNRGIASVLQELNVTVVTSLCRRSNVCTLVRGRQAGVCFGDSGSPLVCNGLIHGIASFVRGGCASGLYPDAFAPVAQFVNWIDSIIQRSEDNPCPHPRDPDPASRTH
The format is tissue-based.

In assay [1] the target is Beta-2 adrenergic receptor (Homo sapiens, UniProt P07550). Nature of the assay: DRUGMATRIX: Adrenergic beta2 radioligand binding (ligand: [3H] CGP-12177). The format is cell membranes, Membrane. Particulars: cho; Not Active = under 50% inhibition at 10 µM.
The nature of assay [2]: DRUGMATRIX: Nicotinic Acetylcholine radioligand binding (ligand: [125I] Epibatidine). The format is cell membranes, Membrane. As to conditions: imr-32; Not Active = under 50% inhibition at 10 µM.
In a further assay the target is Glycine receptor (Rattus norvegicus, UniProt P22771+P24524+P07727+P20781). The format is cell membranes, Wistar, Spinal cord, Membrane. Further: in other assays of this panel Not Active means under 50% inhibition at 10 µM.
The next assay has as its target T2, Cathepsin G (Homo sapiens, UniProt P08311).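 Further: inhibition of Cathepsin G enzyme activity, tested on an AMC-conjugated peptide substrate; in other assays of this panel Not Active means under 50% inhibition at 10 µM.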
T2 sequence (P08311 whole entry): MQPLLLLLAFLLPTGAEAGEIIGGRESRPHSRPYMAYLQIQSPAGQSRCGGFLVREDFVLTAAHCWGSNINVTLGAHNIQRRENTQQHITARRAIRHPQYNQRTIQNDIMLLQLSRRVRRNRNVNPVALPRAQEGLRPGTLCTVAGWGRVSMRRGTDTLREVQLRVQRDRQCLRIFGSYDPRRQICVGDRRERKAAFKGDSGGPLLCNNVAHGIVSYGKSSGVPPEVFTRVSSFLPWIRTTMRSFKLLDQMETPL
The format is tissue-based. Particulars: neutrophil.

Assay [3] is described as follows: DRUGMATRIX: Interleukin IL-1 radioligand binding (ligand: [125I] interleukin 1beta). The format is cell membranes, Membrane. Particulars: nih3t3; Not Active = under 50% inhibition at 10 µM.
Assay [4] concerns the target 5-hydroxytryptamine receptor 4 (Cavia porcellus, UniProt O70528). The format is cell membranes, Dunkin-Hartley, Striatum, Membrane. Further: in other assays of this panel Not Active means under 50% inhibition at 10 µM.
Assay [5] addresses Protein kinase C alpha type (Homo sapiens, UniProt P17252). The format is cell-based. As to conditions: sf9.

Sequence of 5-hydroxytryptamine receptor 4 (O70528 whole entry): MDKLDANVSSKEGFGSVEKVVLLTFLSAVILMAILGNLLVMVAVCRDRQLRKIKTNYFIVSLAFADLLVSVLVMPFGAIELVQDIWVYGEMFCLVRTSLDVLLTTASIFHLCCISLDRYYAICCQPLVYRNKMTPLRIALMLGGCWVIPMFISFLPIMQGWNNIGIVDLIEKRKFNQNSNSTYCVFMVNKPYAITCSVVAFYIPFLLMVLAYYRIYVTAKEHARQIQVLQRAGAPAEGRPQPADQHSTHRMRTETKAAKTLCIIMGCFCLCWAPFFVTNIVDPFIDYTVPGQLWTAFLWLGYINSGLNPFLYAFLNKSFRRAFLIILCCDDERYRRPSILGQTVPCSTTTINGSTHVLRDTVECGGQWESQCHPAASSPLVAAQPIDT

For orientation: IC50 means the concentration that gives 50% inhibition. Regarding `C1CCC(C(CC2CCCCN2)C2CCCCC2)CC1` (configuration not stated) [PERHEXILINE], the IC50 result (on Neutrophil elastase; in assay [1]; in assay [2]; on Glycine receptor; at Cathepsin G; in assay [3]) was “Not Active” in each case. For the same compound, the IC50 result in assay [4] and in assay [5] was “Not Active” in each case. Moreover, the Ki result in assay [2] and in assay [3] was “Not Active” throughout.
Consider `CCOc1ccc(NC(C)=O)cc1` [PHENACETIN], for which the IC50 entry (on Neutrophil elastase; in assay [1]; in assay [2]; on Glycine receptor; on Cathepsin G; in assay [3]) was “Not Active” throughout. The IC50 entry in assay [4] and in assay [5] was “Not Active” in each case. Further, the Ki result in assay [2] and in assay [3] was “Not Active” in each case.
Regarding `Cc1ccc(N(CC2=NCCN2)c2cccc(O)c2)cc1` [PHENTOLAMINE], the IC50 result (against Neutrophil elastase; in assay [1]; in assay [2]; against Glycine receptor; against Cathepsin G; in assay [3]) was “Not Active” throughout. Further, the 50% inhibitory concentration (IC50) result in assay [4] and in assay [5] was “Not Active” throughout. For the same compound, the Ki result in assay [2] and in assay [3] was “Not Active” throughout.
As for `CNNCc1ccc(C(=O)NC(C)C)cc1` [PROCARBAZINE], the IC50 entry (against Neutrophil elastase; in assay [1]; in assay [2]; against Glycine receptor; at Cathepsin G; in assay [3]) was “Not Active” throughout. The IC50 result in assay [4] and in assay [5] was “Not Active” in each case. In addition, the Ki result in assay [2] and in assay [3] was “Not Active” each time.
`CN(C)CCCN1c2ccccc2Sc2ccccc21` [PROMAZINE]: the IC50 result (at Neutrophil elastase; in assay [1]; in assay [2]; on Glycine receptor; against Cathepsin G; in assay [3]) was “Not Active” each time. Further, the IC50 result in assay [4] and in assay [5] was “Not Active” throughout. Besides, the Ki result in assay [2] and in assay [3] was “Not Active” each time.
Take `CC(O)CO` (configuration not stated) [PROPYLENE GLYCOL]: the IC50 entry (on Neutrophil elastase; in assay [1]; in assay [2]; at Glycine receptor; at Cathepsin G; in assay [3]) was “Not Active” in each case. In addition, the IC50 entry in assay [4] and in assay [5] was “Not Active” each time. Also, the Ki result in assay [2] and in assay [3] was “Not Active” in each case.
With CADMIUM ACETATE, the half-maximal inhibitory concentration (IC50) result (on Neutrophil elastase; in assay [1]; in assay [2]; on Glycine receptor; at Cathepsin G; in assay [3]) was “Not Active” throughout. Also, the IC50 entry in assay [4] and in assay [5] was “Not Active” in each case. The Ki entry (on Neutrophil elastase; in assay [1]; in assay [2]; at Glycine receptor; on Cathepsin G; in assay [3]) was “Not Active” in each case. The Ki result in assay [4] and in assay [5] was “Not Active” throughout.
As for LEAD (II) ACETATE, the IC50 entry (against Neutrophil elastase; in assay [1]; in assay [2]; against Glycine receptor; against Cathepsin G; in assay [3]) was “Not Active” each time. For the same compound, the IC50 entry in assay [4] and in assay [5] was “Not Active” throughout. Besides, the Ki result (at Neutrophil elastase; in assay [1]; in assay [2]; at Glycine receptor; on Cathepsin G; in assay [3]) was “Not Active” each time. The Ki result in assay [4] and in assay [5] was “Not Active” in each case.
LIPOPOLYSACCHARIDE E. COLI O55:B5: the IC50 result against Neutrophil elastase is “Not Active”; in assay [1], “Not Active”; in assay [2], “Not Active”; against Glycine receptor, “Not Active”; at Cathepsin G (read-out: IC50), 852 nM; in assay [3], “Not Active”. The IC50 entry in assay [4] and in assay [5] was “Not Active” in each case. In addition, the Ki entry (on Neutrophil elastase; in assay [1]; in assay [2]; on Glycine receptor; in assay [3]; in assay [4]) was “Not Active” in each case. Further, in assay [5], the Ki result is “Not Active”.
